In one test the target is PCSK9 (Homo sapiens (Human), UniProt Q8NBP7). The experiment in a line: PCSK9 Alexa FRET Standard assay (displacement of AlexaFluor647 tagged cyclic peptide Reagent A). The format is binding. To be noted: PCSK9 Alexa FRET Standard assay, 0.5 nM PCSK9, 20 nM AF cyclic peptide Reagent A; read-out: IC50. The method in brief: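 TR-FRET displacement: 0.5 nM biotinylated PCSK9 with 1.25 nM Strep-Eu and 20 nM AlexaFluor-tagged cyclic peptide (final) in 50 mM HEPES pH 7.4, 0.15 M NaCl, 5 mM CaCl2, 0.01% BSA, 0.01% P20, ≥2 h at room temperature. IC50 from sigmoidal fit, converted to Ki via peptide KD; falling Eu counts flagged false positives.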
Sequence of PCSK9 (Q8NBP7 153-692): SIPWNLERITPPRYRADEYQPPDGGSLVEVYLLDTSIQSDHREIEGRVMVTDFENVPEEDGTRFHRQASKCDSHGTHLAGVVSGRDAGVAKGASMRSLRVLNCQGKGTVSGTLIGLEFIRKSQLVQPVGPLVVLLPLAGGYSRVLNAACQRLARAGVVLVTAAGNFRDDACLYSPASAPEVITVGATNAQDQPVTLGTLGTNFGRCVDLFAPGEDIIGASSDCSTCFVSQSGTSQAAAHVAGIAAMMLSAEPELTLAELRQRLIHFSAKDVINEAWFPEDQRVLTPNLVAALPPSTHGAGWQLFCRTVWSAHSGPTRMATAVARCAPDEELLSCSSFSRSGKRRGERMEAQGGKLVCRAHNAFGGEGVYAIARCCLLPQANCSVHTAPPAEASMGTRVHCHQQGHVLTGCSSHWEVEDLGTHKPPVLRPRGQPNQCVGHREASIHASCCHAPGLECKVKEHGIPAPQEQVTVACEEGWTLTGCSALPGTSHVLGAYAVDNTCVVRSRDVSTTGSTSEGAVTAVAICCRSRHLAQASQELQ

Test [1] has as its target human PCSK9 / human LDLR EGFa domain interaction (Homo sapiens (Human), UniProt Q8NBP7). The test is described as follows: TR-FRET assay of inhibition of the PCSK9-LDLR protein-protein interaction. The format is binding. To be noted: TR-FRET, 20 nM human PCSK9, 20 nM human LDLR EGFa domain, 2 hours room temperature; read-out: IC50. The gist of the method:
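Readout is the TR-FRET signal between europium anti-6×His on his-tagged LDLR EGFa domain and Ulight streptavidin on biotinylated PCSK9, both proteins at 20 nM and both detection reagents at 5 nM. Incubation lasted 2 hours at room temperature; compounds were run in dose-response with a 4-parameter fit.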

SMILES strings stand for the structures. Starred links: 1 amine or outer side, 2 acyl side, 3 side chain; linkers in the order of their positions; H or OH if unused. Positions of bridges follow the written chain, without caps; N, C: chain ends. Non-standard residues stand in square brackets, D forms with d. Residues, ends and D or L forms follow the SMILES beside them. Nle(6-ylidene) = O=C([C@H](CCCC=[*:3])N[*:1])[*:2]; X24 = O=C(CCCCSc1c(F)c(F)c(SCCN[*:1])c(F)c1F)[*:2]; X25 = O=C([C@H](Cc1cccc(OCC=[*:3])c1)N[*:1])[*:2]; Trp(5-F) = N[C@@H](Cc1c[nH]c2ccc(F)cc12)C(=O)O; X10 = O=C(CCSCc1ccc2ccc(CSCCN[*:1])cc2c1)[*:2]; dPro(cis-4-NH2) = N[C@H]1CN[C@@H](C(=O)O)C1; Dip = N[C@H](C(=O)O)C(c1ccccc1)c1ccccc1; Lys(N3) = [N-]=[N+]=NCCCC[C@H](N)C(=O)O; X4 = O=C(CCSCc1cccc(CSCCN[*:1])c1)[*:2]; X39 = c1cc(CCSCN[*:2])cc(C[*:1])c1; X34 = O=C(CCC1CCN([*:1])CC1)[*:2]; X7 = O=C(Cc1ccc(CN[*:1])cc1)[*:2]; Aad = N[C@@H](CCCC(=O)O)C(=O)O; αMeP = C[C@@]1(C(=O)O)CCCN1; Dab = NCC[C@H](N)C(=O)O; X2 = O=C(C[*:2])[*:1]; Mpa = O=C(O)CCS

Sequence of human PCSK9 / human LDLR EGFa domain interaction (Q8NBP7 153-692): as above
Sequence of human PCSK9 / human LDLR EGFa domain interaction (Q8NBP7 31-152 partner): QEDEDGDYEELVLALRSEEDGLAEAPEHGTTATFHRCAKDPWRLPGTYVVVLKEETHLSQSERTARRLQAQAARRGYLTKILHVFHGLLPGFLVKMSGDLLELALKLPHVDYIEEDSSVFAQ

As to `COc1ccc(C[C@@H]2NC(=O)[C@H](Cc3cnc[nH]3)NC(=O)[C@H](CC(=O)O)NC(=O)[C@H](Cc3c[nH]c4ccc(F)cc34)NC(=O)[C@H](Cc3c[nH]c4ccc(F)cc34)NC(=O)[C@@H](C)NC(=O)Cc3ccc(cc3)CNC(=O)C[C@@H](C(N)=O)NC(=O)[C@]3(C)CCCN3C2=O)cc1` [Compound 403] ([X7][dA][Trp(5-F)][Trp(5-F)]DHY(Me)[αMeP]D-NH2; lactam N-9), the IC50 on PCSK9 was in the range of 1000 to 12100 nM; in test [1], 100 to 1000 nM.
For `COc1ccc(C[C@@H]2NC(=O)[C@H](Cc3cnc[nH]3)NC(=O)[C@H](CC(=O)O)NC(=O)[C@H](Cc3c[nH]c4ccc(F)cc34)NC(=O)[C@H](Cc3c[nH]c4ccc(F)cc34)NC(=O)[C@H](C)NC(=O)CCC3CCN(CC3)C(=O)[C@H](CC(N)=O)NC(=O)[C@]3(C)CCCN3C2=O)cc1` [Compound 404] (cyclo(A[Trp(5-F)][Trp(5-F)]DHY(Me)[αMeP]N[X34])) the same measures were 1000 to 12100 nM and 100 to 1000 nM.
For `COc1ccc(C[C@@H]2NC(=O)[C@H](Cc3cnc[nH]3)NC(=O)[C@H](CC(=O)O)NC(=O)[C@H](Cc3c[nH]c4ccc(F)cc34)NC(=O)[C@H](Cc3c[nH]c4ccc(F)cc34)NC(=O)[C@@H](C)NC(=O)[C@H](CCCCN)NC(=O)CCSCc3ccc4ccc(cc4c3)CSCCNC(=O)[C@]3(C)CCCN3C2=O)cc1` [Compound 405] (cyclo(DHY(Me)[αMeP][X10]K[dA][Trp(5-F)][Trp(5-F)])) the same measures were 100 to 1000 nM and 0.1 to 100 nM.
`C[C@H]1NC(=O)[C@H](CCCCN)NC(=O)CCSCc2cccc(c2)CSCCNC(=O)[C@]2(C)CCCN2C(=O)[C@H](C(c2ccccc2)c2ccccc2)NC(=O)[C@H](Cc2cnc[nH]2)NC(=O)[C@H](CC(=O)O)NC(=O)[C@H](Cc2c[nH]c3ccc(F)cc23)NC(=O)[C@H](Cc2c[nH]c3ccc(F)cc23)NC1=O` [Compound 406] (cyclo(DH[Dip][αMeP][X4]K[dA][Trp(5-F)][Trp(5-F)])): the IC50 at PCSK9 fell in the range of 100 to 1000 nM; in test [1], 0.1 to 100 nM.
The corresponding values for `COc1ccc(C[C@@H]2NC(=O)[C@H](CCCC(=O)O)NC(=O)[C@H]3C[C@@H](N)CN3C(=O)[C@H](Cc3c[nH]c4ccc(F)cc34)NC(=O)[C@H](Cc3c[nH]c4ccc(F)cc34)NC(=O)[C@@H](C)NC(=O)[C@H](CCCCN=[N+]=[N-])NC(=O)CCSCc3cccc(c3)CCSCNC(=O)[C@]3(C)CCCN3C2=O)cc1` [Compound 408] ([Mpa][Lys(N3)][dA][Trp(5-F)][Trp(5-F)][dPro(cis-4-NH2)][Aad]Y(Me)[αMeP]; linker 1-C via X39) are 21000 to 50000 nM and 21000 to 50000 nM.
For `COc1ccc(C[C@@H]2NC(=O)[C@H](Cc3cnc[nH]3)NC(=O)[C@H](CC(=O)O)NC(=O)[C@H](Cc3c[nH]c4ccc(F)cc34)NC(=O)[C@H](Cc3c[nH]c4ccc(F)cc34)NC(=O)[C@@H](C)NC(=O)[C@H](CCCCN)NC(=O)[C@@H](NC(C)=O)CCNC(=O)COc3ccc(cc3)C[C@@H](C(N)=O)NC(=O)[C@]3(C)CCCN3C2=O)cc1` [Compound 409] (Ac-[Dab]K[dA][Trp(5-F)][Trp(5-F)]DHY(Me)[αMeP]Y-NH2; linker 1-10 via X2) the same measures were 100 to 1000 nM and 0.1 to 100 nM.
The corresponding values for `COc1ccc(C[C@@H]2NC(=O)[C@H](Cc3cnc[nH]3)NC(=O)[C@H](CC(=O)O)NC(=O)[C@H](Cc3c[nH]c4ccc(F)cc34)NC(=O)[C@H](Cc3c[nH]c4ccc(F)cc34)NC(=O)[C@@H](C)NC(=O)CCCCSc3c(F)c(F)c(c(F)c3F)SCCNC(=O)[C@]3(C)CCCN3C2=O)cc1` [Compound 483] (cyclo(DHY(Me)[αMeP][X24][dA][Trp(5-F)][Trp(5-F)])) are 0.11 to 100 nM and 0.1 to 100 nM.
Turning to `COc1ccc(C[C@@H]2NC(=O)[C@@H]3CC/C=C/CC[C@H](NC(=O)[C@H](Cc4c[nH]c5ccc(F)cc45)NC(=O)[C@H](Cc4c[nH]c5ccc(F)cc45)NC(=O)[C@@H](C)NC(=O)[C@H](CCCCN)NC(=O)CCSCc4cccc(c4)CSCCNC(=O)[C@]4(C)CCCN4C2=O)C(=O)N3)cc1` [Compound 493], the IC50 (on PCSK9; in test [1]) was 1000 to 12100 nM in each case.
Regarding `COc1ccc(C[C@@H]2NC(=O)[C@H]([C@@H](C)O)NC(=O)[C@@H]3CCC/C=C/COc4cccc(c4)C[C@H](NC(=O)[C@@H](C)NC(=O)[C@H](CCCCN)NC(=O)CCSCc4cccc(c4)CSCCNC(=O)[C@]4(C)CCCN4C2=O)C(=O)N[C@@H](Cc2c[nH]c4ccc(F)cc24)C(=O)N3)cc1` [Compound 494] (cyclo(K[dA][X25][Trp(5-F)][Nle(6-ylidene)]TY(Me)[αMeP][X4]); staple (E) 3-5), the IC50 (at PCSK9; in test [1]) was 1000 to 12100 nM in each case.

These data come from US11530244B2, “Cyclic polypeptides for PCSK9 inhibition” (priority 2018, dated 2022).
